Laboratory results: paper PMC4494766 (Monatshefte Fur Chemie, 2011)
≈ marks a conversion by molar mass, not a printed value.

System: M. tuberculosis wild-type strain sp. 210 resistant to PAS, INH, ETB and RFP
Test: Tuberculostatic activity, test-tube successive dilution in Youmans' medium
Format: cell-based
Settings: Mycobacterium tuberculosis

| SMILES | MIC |
| --- | --- |
| CSC(=NNC(=O)c1ccc(Cl)c(Cl)c1)SC [Compound 5, Dimethyl 3,4-dichlorobenzoylcarbonohydrazonodithioate] | 12.5 µg/mL (≈ 40.4 µM) |
| COc1cc(C(=O)NN=C(SC)SC)cc(OC)c1OC [Compound 12, Dimethyl 3,4,5-trimethoxybenzoylcarbonohydrazonodithioate] | 50 µg/mL (≈ 151 µM) |
| CSC(=NNC(=O)c1ccccc1[N+](=O)[O-])SC [Compound 6, Dimethyl 2-nitrobenzoylcarbonohydrazonodithioate] | 50 µg/mL (≈ 175 µM) |
| CSC(=NNC(=O)c1ccc(Cl)cc1)SC [Compound 3, Dimethyl 4-chlorobenzoylcarbonohydrazonodithioate] | 25 µg/mL (≈ 91 µM) |
| CSC(=NNC(=O)c1ccc(O)cc1)SC [Compound 10, Dimethyl 4-hydroxybenzoylcarbonohydrazonodithioate] | 25 µg/mL (≈ 97.5 µM) |
| CSC(=NNC(=O)c1ccccc1Cl)SC [Compound 2, Dimethyl 2-chlorobenzoylcarbonohydrazonodithioate] | 50 µg/mL (≈ 182 µM) |
| COc1ccc(C(=O)NN=C(SC)SC)cc1 [Compound 11, Dimethyl 4-methoxybenzoylcarbonohydrazonodithioate] | 25 µg/mL (≈ 92.5 µM) |
| CSC(=NNC(=O)c1cccc(O)c1)SC [Compound 9, Dimethyl 3-hydroxybenzoylcarbonohydrazonodithioate] | 25 µg/mL (≈ 97.5 µM) |
| CSC(=NNC(=O)c1ccccc1O)SC [Compound 8, Dimethyl 2-hydroxybenzoylcarbonohydrazonodithioate] | 25 µg/mL (≈ 97.5 µM) |
| CSC(=NNC(=O)c1ccc(Cl)cc1Cl)SC [Compound 4, Dimethyl 2,4-dichlorobenzoylcarbonohydrazonodithioate] | 50 µg/mL (≈ 162 µM) |
| COc1ccc(CC(=O)NN=C(SC)SC)cc1OC [Compound 13, Dimethyl 2-(3,4-dimethoxyphenyl)acetylcarbonohydrazonodithioate] | 50 µg/mL (≈ 159 µM) |
